Measurements published in patent US20260007802A1, “ANNEALED MICROGEL PARTICLE SYSTEMS AND METHODS” (Tempo Therapeutics, Inc., priority 2023, published 2026).

Assays:
3T3 fibroblasts = experiment: In vitro cytocompatibility, WST-8 proliferation assay (Example 2); format: cell-based, mouse; conditions: WST-8, days 1, 3 and 6
Protocol: Prior to animal experiments, formulations 1-3 and formulations 4-5 were tested (all in the presence and absence of annealing chemistry) for cytocompatibility using immortalized and primary cells. The WST-8 proliferation assay was used to assess cell viability and compare to positive (vehicle) and negative (cytotoxic agent) controls. The formulations used are listed in Table 5 below, along with their characteristics.
In vitro experiments were performed in well plate format. Cells were grown in culture media in adherent culture, and then exposed to either (i) hydrogel microgel particle suspensions, (ii) hydrogel microgel particle suspensions actively undergoing the annealing process, or (iii) the reaction conditions of the annealing process including soluble components but in the absence of hydrogel microgel particles. After exposure, cells were grown in adherent culture for […], measuring proliferation at 1, 3, and 6 days after exposure.
3T3 fibroblasts were grown to 90% confluent and then suspended in DMEM at 2.5×10^6 cells/mL. Then, 2 μL of cell suspension was mixed with MAP (see Table 1 for description of the different formulations tested for cytocompatibility) and added to a 96-well plate. […] Cell viability was then measured at 450 nm using WST-8 kit.

[1] = Chemical annealing kinetics, elastic modulus over time (Instron); format: physicochemical
Protocol: In the rat intradermal study (see Example 2), MAP was annealed using 0.1 mM PETMA (Pentaerythrivol tetras(2-mercaptoacetate)), a 4-thiol containing crosslinker. The thiol groups react with the free vinyl sulfones on the microgel particles in a thiol-ene Michael addition reaction. […] The optimization of the chemical annealing was performed with formulation 1-3. […] Briefly, gels initially formulated at a volume fraction of 100% was thoroughly mixed with the crosslinkers (0.1-0.2 mM) at different pHs, which led to diluting gels to 80%. The elastic modulus was measured at different time points using Instron.
Then, the different HA-MAP formulations were annealed using the selected annealing agent at 0.2 mM at pH 7.4. […] Elastic modulus over time was measured using Instron.
The final volume fraction for annealing was 80% for all annealing conditions.

Structure (SMILES)	cytotoxic effect on cell viability (3T3 fibroblasts)	time to full annealing ([1]; annealing agent with formulations 1-3 gels, pH 7.4) [min]	time before it is annealed ([1]; pH 6.5) [min]	effect on kinetic of annealing and final stiffness ([1]; 0.3% wt, three batches of 4a, 0.2 mM PEG-dithiol 3.4 kDa, pH 7.4)
O=C(CS)OCC(COC(=O)CS)(COC(=O)CS)COC(=O)CS [PETMA, Pentaerythritol tetrakis(2-mercaptoacetate)]	dose dependent cytotoxic effect	≤ 5	< 10	
CCN(CC)CC(=O)Nc1c(C)cccc1C [lidocaine]				reduces the final stiffness after annealing and slightly slows down the reaction
